Results taken from US20070128217A1 (priority 2003, published 2007).

Key:
[1] = tested on: rabbit serum obtained by immunizing a rabbit with the SARS-CoV strain Frankfurt 1; assay type: binding; set-up: Binding of a rabbit serum to linear peptides / Binding of a rabbit serum to looped peptides / Rabbit serum linear peptides / Rabbit serum looped peptides / Binding of a rabbit serum to linear peptides of protein N of SARS-CoV Urbani (Rabbit serum linear peptides) / Binding of a rabbit serum to looped/cyclic peptides of protein N of SARS-CoV Urbani (Rabbit serum looped peptides): unit not given here
[2] = tested on: control sera (pooled serum of ten healthy LUMC hospital workers; commercial negative donor pooled serum from the Dutch bloodbank); assay type: binding, human; set-up: Binding of Control serum LUMC to linear peptides / Binding of Control serum Blood-bank to linear peptides / Binding of Control serum LUMC to looped peptides / Binding of Control Serum Blood-Bank to Looped peptides / Binding of Control serum LUMC to linear peptides of the protein M of SARS-CoV Urbani / Binding of Control serum Blood-bank to linear peptides of the protein M of SARS-CoV Urbani / Binding of Control serum LUMC to looped peptides of the protein M of SARS-CoV Urbani / Binding of Control Serum Blood-Bank to Looped peptides of the protein M of SARS-CoV Urbani: unit not given here
[3] = tested on: antibodies in sera from SARS patients (sera 1a, 1b, 2, 6, 37, 62, London, SARS-yellow, SARS-green); assay type: binding, human; set-up: Binding of serum 6 to linear peptides of protein X1 of SARS-CoV Urbani / Binding of serum 37 to linear peptides of protein X1 of SARS-CoV Urbani / Binding of serum 6 to looped/cyclic peptide (PEPSCAN-ELISA) / Binding of serum 37 to looped/cyclic peptide (PEPSCAN-ELISA) / Binding of serum 37 to looped/cyclic peptides of protein X1 of SARS-CoV Urbani / Binding of serum 6 to linear peptides of protein X2 / Binding of serum 37 to linear peptides of protein X2 / Binding of serum 37 to looped/cyclic peptides of protein X2 of SARS-CoV Urbani / Binding of serum 6 to linear peptides of protein M of SARS-CoV Urbani / Binding of serum 37 to linear peptides of protein M of SARS-CoV Urbani / Binding of serum 6 to looped/cyclic peptides of protein M of SARS-CoV Urbani / Binding of serum 37 to looped/cyclic peptides of protein M of SARS-CoV Urbani / Binding of serum 6 to linear peptides of protein X3 of SARS-CoV Urbani / Binding of serum 37 to linear peptides of protein X3 of SARS-CoV Urbani / Binding of serum 37 to looped/cyclic peptides of protein X3 of SARS-CoV Urbani / Binding of serum 6 to linear peptides of protein X4 of SARS-CoV Urbani / Binding of serum 37 to linear peptides of protein X4 of SARS-CoV Urbani / Binding of serum 37 to looped/cyclic peptides of protein X4 of SARS-CoV Urbani / Binding of serum 6 to linear peptides of protein X5 of SARS-CoV Urbani / Binding of serum 37 to linear peptides of protein X5 of SARS-CoV Urbani / Binding of serum 37 to looped/cyclic peptides of protein X5 of SARS-CoV Urbani / Binding of serum 6 to linear peptides of protein N of SARS-CoV Urbani / Binding of serum 37 to linear peptides of protein N of SARS-CoV Urbani / Binding of serum 6 to linear peptide (PEPSCAN-ELISA) / Binding of serum 1a to looped/cyclic peptides of protein N of SARS-CoV Urbani / Binding of serum 1b to looped/cyclic peptides of protein N of SARS-CoV Urbani / Binding of serum 2 to looped/cyclic peptides of protein N of SARS-CoV Urbani / Binding of serum 6 to looped/cyclic peptides of protein N of SARS-CoV Urbani / Binding of serum 37 to looped/cyclic peptides of protein N of SARS-CoV Urbani / Binding of serum 62 to looped/cyclic peptides of protein N of SARS-CoV Urbani / Binding of serum London to looped/cyclic peptides of protein N of SARS-CoV Urbani / Binding of serum SARS-green to looped/cyclic peptides of protein N of SARS-CoV Urbani: unit not given here

LGKVLPFHRWHTMVQ
0.2: Binding of serum 2 to looped/cyclic peptides of protein X5 of SARS-CoV Urbani [3] | Binding of serum London to looped/cyclic peptides of protein X5 of SARS-CoV Urbani [3] | Binding of serum SARS-green to looped/cyclic peptides of protein X5 of SARS-CoV Urbani [3] | Binding of serum SARS-yellow to linear peptides of protein X5 of SARS-CoV Urbani [3] | Binding of serum SARS-yellow to looped/cyclic peptides of protein X5 of SARS-CoV Urbani [3]
0.8: Binding of Control serum Blood-bank to linear peptides [2]
0.6: Binding of serum 1a to looped/cyclic peptides of protein X5 of SARS-CoV Urbani [3] | Binding of serum 2 to linear peptides of protein X5 of SARS-CoV Urbani [3] | Binding of serum 37 to linear peptides of protein X5 of SARS-CoV Urbani [3] | Binding of serum 62 to linear peptides of protein X5 of SARS-CoV Urbani [3] | Binding of serum London to linear peptides of protein X5 of SARS-CoV Urbani [3]
0.4: Binding of Control Serum Blood-Bank to Looped peptides [2] | Binding of Control serum LUMC to looped peptides [2] | Binding of serum 1b to linear peptides of protein X5 of SARS-CoV Urbani [3] | Binding of serum SARS-green to linear peptides of protein X5 of SARS-CoV Urbani [3]
0.5: Rabbit serum linear peptides [1] | Binding of Control serum LUMC to linear peptides [2] | Binding of serum 6 to linear peptides of protein X5 of SARS-CoV Urbani [3] | Binding of serum 37 to looped/cyclic peptides of protein X5 of SARS-CoV Urbani [3]
0.3: Rabbit serum looped peptides [1] | Binding of serum 1b to looped/cyclic peptides of protein X5 of SARS-CoV Urbani [3] | Binding of serum 6 to looped/cyclic peptides of protein X5 of SARS-CoV Urbani [3] | Binding of serum 62 to looped/cyclic peptides of protein X5 of SARS-CoV Urbani [3]
0.7: Binding of serum 1a to linear peptides of protein X5 of SARS-CoV Urbani [3]

KMLHSSSLTSLLKTH
0.4: Binding of Control serum LUMC to looped peptides [2] | Binding of serum 1b to looped/cyclic peptides of protein X2 of SARS-CoV Urbani [3] | Binding of serum SARS-yellow to linear peptides of protein X2 [3]
0.5: Binding of Control serum LUMC to linear peptides [2] | Binding of serum 1b to linear peptides of protein X2 [3] | Binding of serum 2 to linear peptides of protein X2 [3] | Binding of serum 37 to linear peptides of protein X2 [3]
0.6: Binding of serum 1a to linear peptides of protein X2 [3] | Binding of serum 6 to linear peptides of protein X2 [3] | Binding of serum 62 to linear peptides of protein X2 [3] | Binding of serum SARS-green to linear peptides of protein X2 [3]
0.3: Binding of Control Serum Blood-Bank to Looped peptides [2] | Binding of serum 1a to looped/cyclic peptides of protein X2 of SARS-CoV Urbani [3] | Binding of serum 62 to looped/cyclic peptides of protein X2 of SARS-CoV Urbani [3] | Binding of serum SARS-yellow to looped/cyclic peptides of protein X2 of SARS-CoV Urbani [3]
0.9: Binding of serum London to linear peptides of protein X2 [3]
0.2: Binding of a rabbit serum to linear peptides [1] | Binding of a rabbit serum to looped peptides [1] | Binding of serum 2 to looped/cyclic peptides of protein X2 of SARS-CoV Urbani [3] | Binding of serum 6 to looped/cyclic peptides of protein X2 of SARS-CoV Urbani [3] | Binding of serum 37 to looped/cyclic peptides of protein X2 of SARS-CoV Urbani [3] | Binding of serum London to looped/cyclic peptides of protein X2 of SARS-CoV Urbani [3]
0.7: Binding of Control serum Blood-bank to linear peptides [2] | Binding of serum SARS-green to looped/cyclic peptides of protein X2 of SARS-CoV Urbani [3]

RLLACLCKHKKVSTN
0.7: Binding of Control serum LUMC to linear peptides [2]
0.5: Binding of serum 62 to looped/cyclic peptides of protein X2 of SARS-CoV Urbani [3]
0.9: Binding of Control serum Blood-bank to linear peptides [2]
recognized in linear form: Recognition of the peptide by sera of SARS-CoV infected individuals, and form (linear, looped/cyclic) in which it is recognized [3]
0.2: Binding of serum 1b to looped/cyclic peptides of protein X2 of SARS-CoV Urbani [3] | Binding of serum London to looped/cyclic peptides of protein X2 of SARS-CoV Urbani [3]
0.3: Binding of a rabbit serum to linear peptides [1] | Binding of Control Serum Blood-Bank to Looped peptides [2] | Binding of serum 1a to looped/cyclic peptides of protein X2 of SARS-CoV Urbani [3] | Binding of serum 2 to looped/cyclic peptides of protein X2 of SARS-CoV Urbani [3] | Binding of serum 6 to looped/cyclic peptides of protein X2 of SARS-CoV Urbani [3] | Binding of serum 37 to looped/cyclic peptides of protein X2 of SARS-CoV Urbani [3] | Binding of serum SARS-green to looped/cyclic peptides of protein X2 of SARS-CoV Urbani [3]
0.4: Binding of a rabbit serum to looped peptides [1] | Binding of Control serum LUMC to looped peptides [2] | Binding of serum SARS-yellow to looped/cyclic peptides of protein X2 of SARS-CoV Urbani [3]

EITVATSRTLSYYKL
0.5: Binding of serum 1b to linear peptides of protein M of SARS-CoV Urbani [3] | Binding of serum 2 to looped/cyclic peptides of protein M of SARS-CoV Urbani [3] | Binding of serum 6 to looped/cyclic peptides of protein M of SARS-CoV Urbani [3] | Binding of serum 37 to looped/cyclic peptides of protein M of SARS-CoV Urbani [3] | Binding of serum 62 to looped/cyclic peptides of protein M of SARS-CoV Urbani [3] | Binding of serum SARS-yellow to looped/cyclic peptides of protein M of SARS-CoV Urbani [3]
0.4: Binding of Control serum LUMC to linear peptides of the protein M of SARS-CoV Urbani [2] | Binding of serum 1b to looped/cyclic peptides of protein M of SARS-CoV Urbani [3] | Binding of serum 6 to linear peptides of protein M of SARS-CoV Urbani [3] | Binding of serum SARS-green to linear peptides of protein M of SARS-CoV Urbani [3]
0.9: Binding of serum 62 to linear peptides of protein M of SARS-CoV Urbani [3]
0.3: Binding of serum London to linear peptides of protein M of SARS-CoV Urbani [3] | Binding of serum SARS-green to looped/cyclic peptides of protein M of SARS-CoV Urbani [3]
0.6: Binding of Control serum LUMC to looped peptides of the protein M of SARS-CoV Urbani [2] | Binding of serum 1a to looped/cyclic peptides of protein M of SARS-CoV Urbani [3] | Binding of serum 2 to linear peptides of protein M of SARS-CoV Urbani [3]
0.8: Binding of serum 37 to linear peptides of protein M of SARS-CoV Urbani [3]
0.1: Rabbit serum looped peptides [1] | Binding of serum SARS-yellow to linear peptides of protein M of SARS-CoV Urbani [3]
0.2: Binding of serum London to looped/cyclic peptides of protein M of SARS-CoV Urbani [3]
0.7: Rabbit serum linear peptides [1] | Binding of Control Serum Blood-Bank to Looped peptides of the protein M of SARS-CoV Urbani [2] | Binding of Control serum Blood-bank to linear peptides of the protein M of SARS-CoV Urbani [2] | Binding of serum 1a to linear peptides of protein M of SARS-CoV Urbani [3]

ALVFLILCFTIKRKT
0.5: Binding of serum 1b to looped/cyclic peptides of protein X4 of SARS-CoV Urbani [3] | Binding of serum SARS-green to looped/cyclic peptides of protein X4 of SARS-CoV Urbani [3]
1.1: Binding of serum London to looped/cyclic peptides of protein X4 of SARS-CoV Urbani [3]
0.9: Binding of serum 6 to looped/cyclic peptides of protein X4 of SARS-CoV Urbani [3]
0.7: Binding of Control serum LUMC to looped peptides [2] | Binding of serum 1a to linear peptides of protein X4 of SARS-CoV Urbani [3] | Binding of serum 2 to linear peptides of protein X4 of SARS-CoV Urbani [3] | Binding of serum 6 to linear peptides of protein X4 of SARS-CoV Urbani [3] | Binding of serum 37 to linear peptides of protein X4 of SARS-CoV Urbani [3] | Binding of serum 62 to looped/cyclic peptides of protein X4 of SARS-CoV Urbani [3] | Binding of serum SARS-green to linear peptides of protein X4 of SARS-CoV Urbani [3]
0.8: Binding of Control Serum Blood-Bank to Looped peptides [2] | Binding of Control serum Blood-bank to linear peptides [2] | Binding of serum 1a to looped/cyclic peptides of protein X4 of SARS-CoV Urbani [3] | Binding of serum 2 to looped/cyclic peptides of protein X4 of SARS-CoV Urbani [3] | Binding of serum 62 to linear peptides of protein X4 of SARS-CoV Urbani [3] | Binding of serum London to linear peptides of protein X4 of SARS-CoV Urbani [3]
0.4: Binding of serum SARS-yellow to linear peptides of protein X4 of SARS-CoV Urbani [3]
0.6: Rabbit serum linear peptides [1] | Rabbit serum looped peptides [1] | Binding of Control serum LUMC to linear peptides [2] | Binding of serum 1b to linear peptides of protein X4 of SARS-CoV Urbani [3] | Binding of serum 37 to looped/cyclic peptides of protein X4 of SARS-CoV Urbani [3] | Binding of serum SARS-yellow to looped/cyclic peptides of protein X4 of SARS-CoV Urbani [3]
